# Measurements published in BindingDB's records for doi:10.1038/nchembio.2334 (University of North Carolina, 2017).
# Tests used:
# [1] = biological target: T1, Mas-related G-protein coupled receptor member X2 (Homo sapiens, UniProt Q96LB1); test: PRESTO-Tango Assay; settings: pH 7.4; 30 °C
# T1 sequence (Q96LB1 whole entry): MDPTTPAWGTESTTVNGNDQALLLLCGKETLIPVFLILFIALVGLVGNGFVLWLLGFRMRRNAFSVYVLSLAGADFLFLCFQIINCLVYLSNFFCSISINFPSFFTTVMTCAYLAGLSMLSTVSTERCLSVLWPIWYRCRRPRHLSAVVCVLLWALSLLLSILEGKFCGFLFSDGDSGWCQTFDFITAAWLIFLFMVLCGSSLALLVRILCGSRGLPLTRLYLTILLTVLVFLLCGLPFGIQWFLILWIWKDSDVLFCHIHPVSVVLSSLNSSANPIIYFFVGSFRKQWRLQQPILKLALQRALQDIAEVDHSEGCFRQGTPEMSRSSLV
# Procedure: HTLA cells (HEK-T cells stably expressing a β-arrestin2-TEV fusion protein and a tTa-dependent luciferase reporter) were maintained in DMEM (Corning) containing 10% FBS, 2 μg/ml puromycin and 100 μg/ml hygromycin B in a humidified atmosphere at 37 °C with 5% CO2. In brief, cells were plated to 50% confluency and transfected with a codon-optimized MRGPRX-Tango construct using the calcium phosphate method53. The next day, transfected cells were transferred to glass-bottomed, poly-L-lysine-coated white 384-well plates at a density of 20,000 cells/well. The following day, cells were treated with 10 μM concentrations of small molecules (in quadruplicate) diluted in drug buffer (1× HBSS with 20 mM HEPES and 0.3% bovine serum albumin, pH 7.4) and incubated for 18-24 h. After drug incubation, medium was removed and 20 μl of Bright-Glo (Promega; diluted 20-fold) was added to each well and incubated 15 min at room temperature.
# [2] = biological target: T1, Mas-related G-protein coupled receptor member X2; test: Intracellular Calcium Mobilization Assay; settings: pH 7.4; 30 °C
# Procedure: MRGPRX2 stable cells were maintained in DMEM containing 10% FBS, 100 μg/ml hygromycin B, and 15 μg/ml blasticidin. For the calcium mobilization assay, cells were plated into glass bottomed, poly-L-lysine coated, black 384 well plates at a density of 20,000 cells/well in medium containing 1% dialyzed FBS, 1 μg/ml tetracycline, 100 IU/ml penicillin and 100 μg/ml streptomycin and incubated 24 h. Following tetracycline induction, medium was removed and cells were loaded with 20 μl/well of 1× FLIPR Calcium dye (Molecular Devices) and 2.5 mM probenic acid, for 1 h in a humidified environment at 37 °C with 5% CO2. For mast cell calcium experiments, cells were seeded at a density of 50,000 cells/well in Tyrode's buffer containing 1× calcium dye and incubated for 1 h before treatment and analysis. After dye loading, baseline was measured for 10 s before drug treatment, and then cells were treated with 10 μl of 3× concentrated drug in drug buffer (1× HBSS with 20 mM HEPES and 2.5 mM probenic acid, pH 7.4) in 16 point concentration response curves from 100 μM to 0.003 nM.
Structure (SMILES),EC50 [1],EC50 [2]
COc1ccc2c3c1O[C@H]1[C@@H](OC(C)=O)C=C[C@H]4[C@@H](C2)N(C)CC[C@@]341 [6-Acetylcodeine],19 µM,25 µM
CC(=O)O[C@H]1C=C[C@H]2[C@H]3Cc4ccc(O)c5c4[C@@]2(CCN3C)[C@H]1O5 [6-Acetylmorphine],12 µM,21 µM
"C[C@@H]1C2Cc3ccc(O)cc3[C@]1(C)CCN2 [(6R,11S)-6,11-Dimethyl-1,2,3,4,5,6-hexahydro-2,6-methano-benzo[d]azocin-8-ol]",50 µM,
"C[C@H]1C2Cc3ccc(O)cc3[C@@]1(C)CCN2 [(6S,11R)-6,11-Dimethyl-1,2,3,4,5,6-hexahydro-2,6-methano-benzo[d]azocin-8-ol]",14 µM,13 µM
C[C@@H]1[C@@H]2Cc3ccc(O)cc3[C@@]1(C)CCN2C [(+)-Metazocine],7.2 µM,9.3 µM
CN1CC[C@@]2(c3cccc(O)c3)Cc3nc4ccccc4cc3C[C@@H]2C1 [(+)-TAN-67],0.43 µM,0.29 µM
COc1ccc2c(c1)[C@@]13CCCC[C@@H]1[C@@H](C2)N(C)CC3 [Dextromethorphan],3.2 µM,5.9 µM
CN1CC[C@]23CCCC[C@@H]2[C@H]1Cc1ccc(O)cc13 [Dextrorphan],4.2 µM,3.9 µM
CC[C@H](C)[C@H](NC(=O)[C@H](CCCNC(=N)N)NC(=O)[C@H](CCCNC(=N)N)NC(=O)[C@H](CC(C)C)NC(=O)[C@H](Cc1ccccc1)NC(=O)CNC(=O)CNC(=O)[C@@H](N)Cc1ccc(O)cc1)C(=O)N[C@@H](CCCNC(=N)N)C(=O)N1CCC[C@H]1C(=O)N[C@@H](CCCCN)C(=O)N[C@@H](CC(C)C)C(=O)N[C@@H](CCCCN)C(=O)N[C@@H](Cc1c[nH]c2ccccc12)C(=O)N[C@@H](CC(=O)O)C(=O)N[C@@H](CC(N)=O)C(=O)N[C@@H](CCC(N)=O)C(=O)O [Dynorphin A (1-17)],21 µM,2.3 µM
CC(C)C[C@H](NC(=O)[C@H](Cc1ccccc1)NC(=O)CNC(=O)CNC(=O)[C@@H](N)Cc1ccc(O)cc1)C(=O)N[C@@H](CCCNC(=N)N)C(=O)N[C@@H](CCCNC(=N)N)C(=O)N[C@@H](CCC(N)=O)C(=O)N[C@@H](Cc1ccccc1)C(=O)N[C@@H](CCCCN)C(=O)N[C@H](C(=O)N[C@H](C(=O)N[C@H](C(=O)O)[C@H](C)O)C(C)C)C(C)C [Dynorphin B (1-13)],33 µM,6.5 µM
CN1CC[C@@]23CCCC[C@H]2[C@@H]1Cc1ccc(O)cc13 [Levorphanol],22 µM,13 µM
CCC(=O)O[C@](Cc1ccccc1)(c1ccccc1)[C@H](C)CN(C)C [PROPOXYPHENE],15 µM,32 µM
COC1=CC=C2[C@H]3Cc4ccc(OC)c5c4[C@@]2(CCN3C)[C@H]1O5 [Thebaine],11 µM,76 µM
